Like-named read-outs stand apart in the source and are kept apart here.
Legend:
[1] = In vivo antitumor assay, MXI(sc); set-up: species or system human; details: mouse, in vivo, drug ip, qd 1,5,9, exp SD-9
Source text: (§1) Mice: Inbred: C3H/He and NCR-nu; and Hybrids: B6D2F1 (C57BL/6 females×DBA/2 males, CD2F1 (Balb/c females×DBS/2 males) and B6C3fl (C57BL/6×C3H) were bred at Wayne State University from strains obtained from the Frederick Cancer Research Facility, Frederick, Maryland or purchased from commercial suppliers.
(§2) Tumors: Murine Tumor: P388 and an adriamycin-resistant (ADR) subline P388/ADR leukemia and the following transplantable solid tumors of mice were used for in vivo testing: B16 melanoma (B16), pancreatic ductal adenocarcinoma No. 03 (Pane 03), colon adenocarcinoma No. 38 (colo 38), lung carcinoma No. 12 (LC 12), mammary ductal adenocarcinoma No. 16/C (Mam16C) and an adriamycin-resistant subline Mam16C/ADR. Human tumor: A single human tumor, mammary carcinoma MX-1 was used for in vivo testing. All tumors are in the Developmental Therapeutics Program frozen tumor respository, maintained by the Biological Testing Branch, Frederick Maryland. Each has a detailed description, code identification number, and list of references at the National Tumor Repository. Murine tumors were maintained in the mouse strain of origin and were transplanted in the appropriate F1 hydrid (or the strain of origin) for therapy trials. Human mammary carcinoma MX-1 (MX1) was maintained as a subcutaneous implant in either athymic Swiss (Cr: NIH(S)-nu) or athymic random bred (NCR-nu) mice and transplanted in NCR-nu for therapy trials.
(§3) For P388 and P388/ADR leukemia studies the tumor cells were implanted either interperitoneally (IP) or intravenously (IV) on day zero and treatment was started on day one. For B16 melanoma (B16) studies, the tumor cells were implanted IP on day zero and treatment was started on day one. Titered controls were also included to facilitate the calculation of tumor cell kill. For mammary carcinoma MX-1 studies, tumors were implanted with 1) subcutaneously (sc) (14-mg fragment of sc donor tumor) in the axillary region or 2) under the subrenal capsule (SRC) (10×10×10 ocular micrometer unit fragment of sc donor tumor).
(§4) Quantitative end points used to assess antitumor activity included % Increased Life Span (% ILS), Tumor Cell Kill (Log10 kill), and Tumor Growth Inhibition (T/C). Long Term Survivors (45 or 60 day) were excluded from calculations of %ILS and Tumor Cell Kill.
(§5) Tumors were measured with a caliper once or twice weekly (as needed) until either tumors exceeded 1600 mg or cure was assured. Tumor weights were estimated from two-dimensional measurements: Tumor Weight (mg)=(a×b^2) / 2, where a and b are the tumor length and width (ram) respectively. Measurements were carried out simultaneously in both treatment and control groups. When the control group tumors reached approximately 750-1500 mg in size (median of group), the median tumor weight of each group was determined (including zeros). The T/C value in percent is an indication of antitumor effectiveness. The % T/C was calculated from the following formula for solid murine tumor models: [formula] where T and C are median tumor weights of the treatment and control groups, respectively. […] A T/C value <10% is indicative of a high degree of antitumor activity and is the level used by National Cancer Institute to justify further development if other requirements are met (termed DN-2 level activity). By convention the T/C value for the mammary carcinoma MX-1 models is calculated by the parameter of change in tumor weight . The % T/C was calculated from the following formula for MX-1 models [formula] where ΔT and ΔC are the change in mean tumor weight of the test and control groups, respectively, and T (initial) is the initial mean tumor weight of the test group. […] A reproducible % T/C ≤10 is considered significant activity.

mammary carcinoma MX-1 [2] = assay: In vivo antitumor assay, MXI(sc); set-up: species or system human; details: drug ip, qd 1,5,9, exp SD-9, change in tumor weight
Source text: as §1, §2, §3, §4, §5

[3] = tested on: P388 murine leukemia cells; assay: In vitro cytotoxicity, one-hour exposure, clonogenic survival of P388 cells; format: cell-based; details: Mus musculus, read-out: in vitro cytotoxicity IC50, 1 hr exp.
Method: In vitro cytotoxicity was assayed by determining cell survival following exposure of P388 murine leukemia cells to a range of test compound concentrations. Cytotoxicity was quantitated following either a one-hour exposure or continuous exposure of P388 cells to test compound.
A Manual of Basic Technique. […] Briefly, following drug exposure cells were plated in soft agar and incubated (37°, 5% CO2) for 7-10 days during which time viable cells form visible colonies. Cytotoxicity following continuous exposure of cells to test compound was assayed by quantitating total P388 cells on a Coultier Counter following a 48-hour co-incubation of test compound with cells. P388 cells were maintained in log phase throughout the duration of cytotoxicity assays.
The percentage of cells surviving relative to an untreated control was graphed as a function of increasing drug concentration.

[4] = In vivo antitumor assay, B16(ip); set-up: species or system mice; details: mouse, in vivo, drug ip
Source text: as §1, §2, §3, §4
(§6) Endpoints were calculated as follows: [formula] where Dt is the median day of death for treated and Dc is the median day of death for control groups. A % ILS ≥20 or ≥25 for P388 and B16 intraperitoneal models, respectively, is indicative of a significant degree of antitumor activity. A % ILS ≥75 or ≥50 for P388 and B16 intraperitoneal models, , respectively, is indicative of a high degree of antitumor activity and is the level used by National Cancer Institute to justify further development if other requirements are met (termed DN-2 level activity). Minimum quantitative activity limits for additional P388 models (e.g. P388/ADR and P388, IV) have not been defined.

B16 melanoma (B16) = assay: In vivo antitumor assay, B16(ip); set-up: species or system mice; details: drug ip; for ILS %: qd 1,5,9, exp SD-17, at dose of MTD; for Log Kill: qd 1,5,9, exp SD-17, log10
Source text: as §1, §2, §3, §4, §6

[5] = In vivo antitumor assay, MXI(src); set-up: species or system mice; details: mouse, in vivo, drug ip
Source text: as §1, §2, §3, §4, §5

mammary carcinoma MX-1 [6] = assay: In vivo antitumor assay, MXI(src); set-up: species or system mice; details: drug ip, qd 1,5,9, exp SD-18, change in tumor weight
Source text: as §1, §2, §3, §4, §5

[7] = qd 1,5,9, exp SD-17, MTD not achieved, maximum dose tested

SMILES	MTD [1] [mg/kg]	T/C % (mammary carcinoma MX-1 [2]) [%]	IC50 ([3]; P388, 1 hr exposure) [nM]	MTD ([4]; qd 1,5,9, exp SD-17) [mg/kg]	ILS % (B16 melanoma (B16)) [%]	Log Kill (B16 melanoma (B16))	MTD ([5]; qd 1,5,9, exp SD-18) [mg/kg]	T/C % (mammary carcinoma MX-1 [6]) [%]	MTD [4, 7] [mg/kg]	MTD ([5]; qd 1,5,9, exp SD-18, MTD not achieved, maximum dose tested) [mg/kg]	IC50 ([3]; P388, 1 h) [nM]
Cc1cc(-c2c(F)cc3c4nn(CCCN(C)C)c(=O)c-4cn(C4CC4)c3c2F)cc(C)n1 [Example 14]	42	53	160	28	58	1.3	–	–	–	–	–
Cc1cc(-c2c(F)cc3c4nn([C@H]5CC[C@H](N(C)C)CC5)c(=O)c-4cn(C4CC4)c3c2F)cc(C)n1 [Example 51b]	–	–	260	–	47	1.0	99	2	> 99	–	–
Cc1cc(-c2c(F)cc3c4nn(CCNCCO)c(=O)c-4cn(C4CC4)c3c2F)cc(C)n1 [Example 17]	270	67	1300	180	61	1.4	–	–	–	–	–
Cc1cc(-c2c(F)cc3c4nn([C@H]5CC[C@@H](N)CC5)c(=O)c-4cn(C4CC4)c3c2F)cc(C)n1 [Example 56a, 2-(Cis-4-Aminocyclohexyl)-5-cyclopropyl-6,8-difluoro-2,5-dihydro-7-(2,6-dimethyl-4-pyridinyl)-3H-pyrazolo-[4,3-c]quinolin-3-one]	–	–	440	–	–	–	–	–	–	–	–
Cc1cc(-c2c(F)cc3c4nn([C@H]5CC[C@@H](N(C)C)CC5)c(=O)c-4cn(C4CC4)c3c2F)cc(C)n1 [Example 51a]	–	–	67	–	29	0.67	–	5	> 15	> 23	–
Cc1cc(-c2c(F)cc3c4nn(CCN(C)C)c(=O)c-4cn(C4CC4)c3c2F)cc(C)n1.O=C(O)/C=C/C(=O)O [Example 1, 5-Cyclopropyl-6,8-difluoro-2,5-dihydro-2-[2-(dimethylamino)-ethyl]-7-(2,6-dimethyl-4-pyridinyl)-3H-pyrazolo[4,3-c]quinolin-3-one (E)-2-butendioate (1:1)]	78	37	–	78	85	1.9	52	6	–	–	260
